ChEMBL document CHEMBL1201862, “PubChem BioAssay data set” (2004)
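Protocol summary: plate cells (96-well), add compound at 5 concentrations, incubate 48 h, interpolate endpoints linearly. GI50 is the concentration that inhibits growth by half.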 Active and inactive are the calls of the source. No stated cut-off is given here; in the data, active = GI50 up to about 1.1 µM and inactive = higher.

Columns and labels:
Test in all cases: NCI-60 cell line screen, 48 h
[1] = test system: M19-MEL
[2] = test system: SNB-78
[3] = test system: HOP-18
[4] = test system: KM-20L2
[5] = test system: RXF 631
[6] = test system: DMS-273
[7] = test system: DMS-114
[8] = test system: LXFL 529
[9] = test system: XF498

Measured: GI50

Cc1oc2c(C)c3oc(=O)cc(C)c3cc2c1CN1C(=O)C2OCCOCCOCCOCCOCCO[C@H]2C1=O (stereo partly drawn)
inactive: [1] > 100 µM | [2] > 100 µM | [3] > 100 µM | [4] > 100 µM | [5] 26.7 µM | [6] > 100 µM | [7] > 100 µM | [8] > 100 µM

C#CCC[C@@H]1O[C@@]1(C)CC/C=C(\C)CC/C=C/C=O
inactive: [1] 24.2 µM | [2] 25.3 µM | [4] 36.4 µM | [9] 24.2 µM | [6] 20 µM | [7] 14.6 µM | [8] 20.1 µM

Cc1cccc(Cl)c1NC(N)=S
inactive: [1] > 100 µM | [2] 77.1 µM | [3] 11.1 µM | [4] 50.8 µM | [5] 35.9 µM | [6] 20.5 µM | [7] 18.5 µM | [8] 31.8 µM

Cc1ccc2nc(/C(=C/c3ccc(/C=C(\NC(=O)c4ccccc4)c4nc5ccc(C)cc5[nH]4)c(C)c3)NC(=O)c3ccccc3)[nH]c2c1
inactive: [1] 4.36 µM | [2] 23.1 µM | [4] 20.3 µM | [5] 19.2 µM | [9] 3.76 µM | [6] 22.6 µM | [7] 7.57 µM | [8] 1.5 µM

COc1ccccc1NC(=O)CSC(N)=O
inactive: [1] 29.2 µM | [2] 50.4 µM | [3] 82.8 µM | [4] > 100 µM | [9] 30.8 µM | [6] 34.4 µM | [7] 46.2 µM

COc1nc(N)c(C(=O)CCl)c(=O)n1C
inactive: [2] 12 µM | [3] 16.4 µM | [4] 18.3 µM | [5] 15.3 µM | [9] 16.4 µM | [7] 16.8 µM | [8] 13.6 µM

O=C1c2ccccc2OCC1/C=N/O (stereo not drawn)
inactive: [1] 70.1 µM | [2] > 72.9 µM | [3] > 100 µM | [9] > 100 µM | [6] 99.8 µM | [7] 36.4 µM

O=C1N[C@@H]2CCCC[C@@H]2C12CCCCC2
inactive: [1] > 100 µM | [2] > 100 µM | [3] > 100 µM | [4] > 100 µM | [5] > 100 µM | [9] > 100 µM | [8] > 100 µM

CCCCCCCC(=O)OC(COC(=O)Cc1ccccc1)COC(=O)C(C)(C)C (stereo not drawn)
inactive: [1] > 100 µM | [3] > 100 µM | [4] > 100 µM | [5] > 100 µM | [6] > 100 µM | [7] > 100 µM | [8] 95.3 µM

O=C(NCCO)c1cc2c(cn1)[nH]c1ccccc12
inactive: [2] > 100 µM | [4] > 100 µM | [5] > 100 µM | [9] > 100 µM | [6] > 100 µM | [7] > 100 µM | [8] > 100 µM

O=C(/N=C(/Nc1ccccc1)SCS/C(=N\C(=O)c1ccco1)Nc1ccccc1)c1ccco1
inactive: [1] > 100 µM | [2] 37.1 µM | [4] > 100 µM | [5] 94.4 µM | [9] 25.4 µM | [6] 37.8 µM | [7] 52 µM | [8] > 100 µM

CN(C)c1ccc(O[Si](Oc2ccc(N(C)C)cc2)(Oc2ccc(N(C)C)cc2)Oc2ccc(N(C)C)cc2)cc1
inactive: [1] > 100 µM | [3] > 100 µM | [4] > 100 µM | [9] 44.4 µM | [7] 46.5 µM | [8] 50.9 µM

CN(C)CCC1(C2=CCCC2)CC/C(=C\c2ccc3c(c2)OCO3)C1=O (stereo not drawn)
inactive: [1] 18.6 µM | [2] 16.8 µM | [3] 13.6 µM | [4] 14.2 µM | [5] 15.2 µM | [7] 14.8 µM | [8] 12.9 µM

O=c1cccccc1NCCOCCNc1cccccc1=O
inactive: [1] > 100 µM | [2] > 100 µM | [3] 29 µM | [4] > 100 µM | [6] > 100 µM | [7] > 100 µM | [8] > 100 µM

CCN(CC)c1ccc(/N=N\c2ccc(-c3nc4ccc[n+](C)c4s3)cc2)cc1
inactive: [1] 3.55 µM | [2] 4.37 µM | [3] 16.7 µM | [4] 6.78 µM | [6] 3.65 µM | [8] 3.24 µM

Cn1cc(NC(=O)c2cc(NC(=O)CCCCCCCC(=O)Nc3cc(C(=O)Nc4cc(C(=O)NCCC(=N)N)n(C)c4)n(C)c3)cn2C)cc1C(=O)NCCC(=N)N
inactive: [1] 5.43 µM | [2] 35.2 µM | [3] 34 µM | [4] > 100 µM | [5] 56.9 µM | [9] 29.2 µM | [6] 11.2 µM | [7] 4.03 µM | [8] 12.4 µM

C=C(C)C(=O)OC1C/C(CO)=C\C(O)C/C(C)=C/C2OC(=O)C(=C)C21 (stereo not drawn)
inactive: [1] 25.6 µM | [2] 46.3 µM | [3] 31.3 µM | [4] 30.3 µM | [5] 18.4 µM | [9] 15.2 µM | [6] 27.5 µM | [7] 23.7 µM | [8] 16.9 µM

NS(=O)(=O)c1ccc(NC(=O)c2cccc3cc4ccccc4nc23)cc1
inactive: [1] 37.2 µM | [2] > 100 µM | [3] > 100 µM | [4] 12.6 µM | [5] 29.2 µM | [9] 49.7 µM | [6] 9.44 µM | [7] 97.7 µM | [8] 25 µM

CC1=C2C(O)C(C(C)C(=O)NCC(C)C)CCC2(C)C=CC1=O (stereo not drawn)
inactive: [1] > 100 µM | [2] > 100 µM | [3] > 100 µM | [4] > 100 µM | [9] > 100 µM | [6] > 100 µM | [7] > 100 µM

CC#N.O[C@@H]1CCCC[C@H]1O.O[C@@H]1CCCC[C@H]1O.[TeH2]
inactive: [1] 21.5 µM | [2] > 100 µM | [3] 23.3 µM | [4] 69.7 µM | [5] 22.8 µM | [6] 18.1 µM | [7] 44.7 µM | [8] 37.7 µM
